Results taken from patent publication US10335399B2, “Chromane, isochromane and dihydroisobenzofuran derivatives as mGluR2—negative allosteric modulators, compositions, and their use” (Merck Sharp & Dohme Corp., priority 2016, dated 2019).

Target: recombinant human mGluR2 (Homo sapiens (Human), UniProt Q14416)
Assay: FLIPR Ca2+ mobilization assay: inhibition of glutamate-dependent mGluR2 activity
Assay type: cell-based
Conditions: CHO dhfr- cells stably expressing recombinant human mGluR2 and Gα16, Fluo-4 AM, FLIPR384; inhibition of response to 2,500 nM glutamate
Experimental: Inhibition constants (IC50s; the concentration of compound required to provide 50% of maximal activity) are determined as follows. The compounds of the invention were tested in a fluorescence laser imaging plate reader based assay. This assay is a common functional assay to monitor Ca^2+ mobilization in whole cells expressing recombinant receptor coupled with a promiscuous G-protein. CHO (Chinese hamster ovary) dhfr− cells stably expressing recombinant human mGluR2 and Gα16 loaded with Fluo-4 AM (Invitrogen, Carlsbad Calif., USA) were treated with various concentrations of each of the tested compounds of the invention and the Ca^2+ response was monitored on a FLIPR384 instrument (Molecular Devices, Sunnydale Calif., USA). […] The maximum calcium response at each concentration of compound for agonist or antagonist were plotted as dose responses and the curves were fitted with a four parameter logistic equation giving IC50 and Hill coefficient using the iterative non-linear curve fitting software ADA (Merck & Co., Inc.). Data in the following table lists the activity of each compound to inhibit glutamate-dependent mGluR2 activity in this cellular assay.

Chain of recombinant human mGluR2 (Q14416 19-872): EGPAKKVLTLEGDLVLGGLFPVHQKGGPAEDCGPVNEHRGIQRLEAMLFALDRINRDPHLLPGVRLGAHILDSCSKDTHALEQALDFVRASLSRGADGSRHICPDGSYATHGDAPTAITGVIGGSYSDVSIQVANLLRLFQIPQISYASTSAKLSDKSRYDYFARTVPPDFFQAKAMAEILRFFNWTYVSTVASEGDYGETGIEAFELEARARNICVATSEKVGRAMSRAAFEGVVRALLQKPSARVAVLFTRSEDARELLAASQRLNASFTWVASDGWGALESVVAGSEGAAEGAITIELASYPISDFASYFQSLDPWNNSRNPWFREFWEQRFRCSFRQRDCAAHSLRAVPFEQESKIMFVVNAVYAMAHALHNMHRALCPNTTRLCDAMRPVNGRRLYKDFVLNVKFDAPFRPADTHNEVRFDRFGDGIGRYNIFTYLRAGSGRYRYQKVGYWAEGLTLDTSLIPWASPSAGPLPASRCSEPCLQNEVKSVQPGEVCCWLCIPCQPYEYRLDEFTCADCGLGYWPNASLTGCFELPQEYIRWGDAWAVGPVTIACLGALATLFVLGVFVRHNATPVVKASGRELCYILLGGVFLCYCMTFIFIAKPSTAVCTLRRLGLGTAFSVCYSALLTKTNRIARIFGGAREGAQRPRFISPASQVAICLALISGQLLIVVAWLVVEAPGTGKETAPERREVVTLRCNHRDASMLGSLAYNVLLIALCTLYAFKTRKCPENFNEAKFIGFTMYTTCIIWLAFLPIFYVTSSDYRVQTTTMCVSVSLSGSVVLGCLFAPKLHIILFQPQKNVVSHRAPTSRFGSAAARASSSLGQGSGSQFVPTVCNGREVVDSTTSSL

Compound | IC50 [nM]
C[C@@H]1Cc2c(-c3ccc(F)cc3F)cc(C(N)=O)nc2O[C@@H]1CO [Example 2-2A, (2S,3R)-5-(2,4-difluorophenyl)-2-(hydroxymethyl)-3-methyl-3,4-dihydro-2H-pyrano[2,3-b]pyridine-7-carboxamide] | 195
C[C@H]1Cc2c(-c3ccc(F)cc3F)cc(C(N)=O)nc2O[C@@H]1CO [Example 2-2B, (2S,3S)-5-(2,4-difluorophenyl)-2-(hydroxymethyl)-3-methyl-3,4-dihydro-2H-pyrano[2,3-b]pyridine-7-carboxamide] | 15
C[C@@H]1Cc2c(-c3ccc(F)cc3F)cc(C(N)=O)nc2O[C@H]1CO [Example 2-2C, (2R,3R)-5-(2,4-difluorophenyl)-2-(hydroxymethyl)-3-methyl-3,4-dihydro-2H-pyrano[2,3-b]pyridine-7-carboxamide] | 35
C[C@H]1Cc2c(-c3ccc(F)cc3F)cc(C(N)=O)nc2O[C@H]1CO [Example 2-2D, (2R,3S)-5-(2,4-difluorophenyl)-2-(hydroxmethyl)-3-methyl-3,4-dihydro-2H-pyrano[2,3-b]pyridine-7-carboxamide] | 81
NC(=O)c1cc(-c2ccc(F)cc2F)c2c(n1)O[C@@H](C1CC1)CC2 [Example 2-3A, (R)-2-cyclopropyl-5-(2,4-difluorophenyl)-3,4-dihydro-2H-pyrano[2,3-b]pyridine-7-carboxamide] | 20
NC(=O)c1cc(-c2ccc(F)cc2F)c2c(n1)O[C@H](C1CC1)CC2 [Example 2-3B, (S)-2-cyclopropyl-5-(2,4-difluorophenyl)-3,4-dihydro-2H-pyrano[2,3-b]pyridine-7-carboxamide] | 32
CC1(C)CCc2c(-c3ccc(F)cc3F)cc(C(N)=O)nc2O1 [Example 2-5, 5-(2,4-difluorophenyl)-2,2-dimethyl-3,4-dihydro-2H-pyrano[2,3-b]pyridine-7-carboxamide] | 6
C[C@@H]1Cc2c(-c3ccc(F)cc3F)cc(C(N)=O)nc2O[C@H]1COC(F)F [Example 3-9C, (2R,3R)-2-((difluoromethoxy)methyl)-5-(2,4-difluoropheny)-3-methyl-3,4-dihydro-2H-pyrano[2,3-b]pyridine-7-carboxamide] | 15
NC(=O)c1cc(-c2ccc(F)cc2F)c2c(n1)O[C@H](CNCC(F)(F)F)CC2 [Example 4-2A, (S)-5-(2,4-difluoropheny)-2-(((2,2,2-trifluoroethyl)amino)methyl)-3,4-dihydro-2H-pyrano[2,3-b]pyridine-7-carboxamide] | 21

Next, values leading:

IC50 [nM] | Compound
25 | CC1(C)COc2nc(C(N)=O)cc(-c3ccc(F)cc3F)c2C1 [Example 2-7, 5-(2,4-difluorophenyl)-3,3-dimethyl-3,4-dihydro-2H-pyrano[2,3-b]pyridine-7-carboxamide]
114 | C[C@@H](OC(F)F)[C@@H]1CCc2c(-c3ccc(F)cc3F)cc(C(N)=O)nc2O1 [Example 2-9B, (S)-2-((R)-1-(difluoromethoxy)ethyl)-5-(2,4-difluorophenyl)-3,4-dihydro-2H-pyrano[2,3-b]pyridine-7-carboxamide]
11 | C[C@H](OC(F)F)[C@H]1CCc2c(-c3ccc(F)cc3F)cc(C(N)=O)nc2O1 [Example 2-9C, (R)-2-((S)-1-(difluoromethoxy)ethyl)-5-(2,4-difluorophenyl)-3,4-dihydro-2H-pyrano[2,3-b]pyridine-7-carboxamide]
57 | C[C@@H](OC(F)F)[C@H]1CCc2c(-c3ccc(F)cc3F)cc(C(N)=O)nc2O1 [Example 2-9D, (R)-2-((R)-1-(difluoromethoxy)ethyl)-5-(2,4-difluorophenyl)-3,4-dihydro-2H-pyrano[2,3-b]pyridine-7-carboxamide]
7 | NC(=O)c1cc(-c2ccc(F)cc2F)c2c(n1)O[C@@H](COC(F)F)CC2 [Example 3-1A, (R)-2-((difluoromethoxy)methyl)-5-(2,4-difluorophenyl)-3,4-dihydro-2H-pyrano[2,3-b]pyridine-7-carboxamide]
19 | NC(=O)c1cc(-c2ccc(F)cc2F)c2c(n1)O[C@H](COC(F)F)CC2 [Example 3-1B, (S)-2-((difluoromethoxy)methyl)-5-(2,4-difluorophenyl)-3,4-dihydro-2H-pyrano[2,3-b]pyridine-7-carboxamide]
18 | NC(=O)c1cc(-c2ccc(F)cc2F)c2c(n1)O[C@@H](C(F)F)CC2 [Example 3-7A, (R)-2-(difluoromethyl)-5-(2,4-difluorophenyl)-3,4-dihydro-2H-pyrano[2,3-b]pyridine-7-carboxamide]
90 | NC(=O)c1cc(-c2ccc(F)cc2F)c2c(n1)O[C@H](C(F)F)CC2 [Example 3-7B, (S)-2-(difluoromethyl)-5-(2,4-difluorophenyl)-3,4-dihydro-2H-pyrano[2,3-b]pyridine-7-carboxamide]
